The term Ki denotes a measure of affinity in units of concentration, obtained from inhibition or displacement.

Drawing on patent US5935973A, “Heterocyclcarboxamide derivatives and their use as therapeutic agents” (Knoll Aktiengesellschaft, priority 1995, dated 1999), this text covers Ki and inhibition for 21 compounds.

Assay [1] deals with T1, D2 dopamine receptors (Rattus norvegicus, UniProt P61169).
T1 construct: Striatal tissue from the brains of male Charles River CD rats; from tissue; host or cells: rat striatum membranes
T1 sequence (P61169 whole entry): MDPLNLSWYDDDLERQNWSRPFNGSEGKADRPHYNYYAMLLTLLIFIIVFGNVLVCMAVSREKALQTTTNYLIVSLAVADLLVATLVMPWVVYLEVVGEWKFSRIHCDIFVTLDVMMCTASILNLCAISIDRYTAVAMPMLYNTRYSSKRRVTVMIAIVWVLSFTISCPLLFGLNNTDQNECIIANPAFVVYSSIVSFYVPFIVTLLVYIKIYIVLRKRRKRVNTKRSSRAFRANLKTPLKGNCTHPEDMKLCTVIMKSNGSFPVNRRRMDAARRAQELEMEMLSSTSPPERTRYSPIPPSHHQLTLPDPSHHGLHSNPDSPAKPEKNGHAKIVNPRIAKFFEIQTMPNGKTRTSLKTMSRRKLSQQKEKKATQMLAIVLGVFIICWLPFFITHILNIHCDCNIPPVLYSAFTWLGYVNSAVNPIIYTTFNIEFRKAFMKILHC
Description: inhibition of tritiated (S)-sulpiride binding to D2 dopamine receptors in rat striatal tissue. The conditions noted are these: rat striatum; for Ki: tritiated (S)-sulpiride 1 nM, 4° C., 40 min; for inhibition at 1 µM: at 10^-6 M, tritiated (S)-sulpiride, read-out: % displacement of radio ligand, D2.

In assay [2] the target is T2, α2D-adrenoceptors (Rattus norvegicus, UniProt P22909).
T2 construct: Frontal cortical tissue from the brains of male Charles River CD rats; from tissue; host or cells: rat frontal cortex membranes
T2 sequence (P22909 1-465): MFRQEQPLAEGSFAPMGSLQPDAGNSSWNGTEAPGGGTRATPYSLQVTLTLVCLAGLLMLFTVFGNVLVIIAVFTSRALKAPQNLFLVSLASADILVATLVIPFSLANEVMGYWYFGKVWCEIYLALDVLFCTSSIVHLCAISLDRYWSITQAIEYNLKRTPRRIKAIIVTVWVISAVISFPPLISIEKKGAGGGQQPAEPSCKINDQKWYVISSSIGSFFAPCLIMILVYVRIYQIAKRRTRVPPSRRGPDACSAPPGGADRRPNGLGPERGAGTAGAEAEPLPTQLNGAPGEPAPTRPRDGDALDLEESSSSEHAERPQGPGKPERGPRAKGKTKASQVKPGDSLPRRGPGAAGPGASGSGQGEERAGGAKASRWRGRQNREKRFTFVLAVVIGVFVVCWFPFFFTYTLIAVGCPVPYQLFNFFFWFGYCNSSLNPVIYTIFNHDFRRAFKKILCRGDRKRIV
Put plainly: inhibition of tritiated idazoxan binding to α2D-adrenoceptors in rat frontal cortical tissue. The note with it: rat frontal cortex; for inhibition at 1 µM: at 10^-6 M, tritiated idazoxan, read-out: % displacement of radio ligand, α2D; for Ki: tritiated idazoxan 1 nM, 0° C., 75 min. As to the method: Frontal cortical tissue from the brains of male Charles River CD rats weighing between 150-250 g were homogenised in ice-cold 0.25 M sucrose (1:30 w/v) and centrifuged at 1,000 g at 4° C. for 12 minutes. The supernatant was stored on ice and the pellet was rehomogenised in 0.25 M sucrose (1:15 w/v) and centrifuged at 850 g at 4° C. for 12 minutes. Combined supernatants were diluted with 5 mM Tris-HCl (pH 7.5) containing 5 mM ethylenediamine tetraacetic acid (EDTA) readjusted to pH 7.5 (at 25° C.) with 1 M sodium hydroxide to 1:80 w/v, and centrifuged at 30,000 g at 4° C. for 10 minutes. The resulting pellet was resuspended in 50 mM Tris-HCl (pH 7.5) containing 5.68 mM L-ascorbic acid and 0.5 mM EDTA readjusted to pH 7.5 (at 25° C.) with 1 M sodium hydroxide, and centrifuged at 30,000 g for 10 minutes. The final pellet was resuspended in 50 mM Tris-HCl (pH 7.5) containing 5.68 mM L-ascorbic acid and 5 mM EDTA (equivalent to 12.5 mg wet weight of tissue/ml) and used immediately in the binding assay. Aliquots (400 μl; equivalent to 5 mg wet weight of tissue/tube) of this suspension were added to tubes containing the ligand (50 μl; 1 nM) and distilled water (50 μl; total binding) or phentolamine (50 μl; 5 μM; non-specificbinding) or test compound (50 μl; at a single concentration of 10^-6 M or at 10 concentrations ranging from 10^-11 -10^-3 M). The ligand was tritiated idazoxan ((1,4-[6,7(n)-^3 H]benzodioxan-2-yl)-2-imidazoline hydrochloride) and the mixture was incubated at 0° C. for 75 minutes before the incubation was terminated by rapid filtration.
The filters were washed with ice-cold Tris-HCl buffer and dried. The filters were punched out into vials, scintillation fluid added and radioactivity determined by liquid scintillation counting. […] Displacement curves were then produced for those compounds which displaced ≥50% of specific binding of the tritiated ligand at 10^-6 M using a range of concentrations of the compound. The concentration which gave 50% inhibition of specific binding (IC50) was obtained from the curve. The inhibition coefficient Ki was then calculated using the formula [formula] in which [ligand] is the concentration of the tritiated ligand used and KD is the equilibrium dissociation constant for the ligand.

Turning to `COc1cccc2c1OC(CN1CCC(CNC(=O)c3cccnc3N)CC1)CO2` (stereo not drawn) [Example 11, 2-amino-N-{[1-(8-methoxy-1,4-benzodioxan-2-ylmethyl)-4-piperidyl]methyl}pyridine-3-carboxamide], the Ki in assay [1] stood at 41 nM. Besides, the inhibition at 1 µM in assay [2] is 98%.
As for `COc1ccc2c(c1)O[C@@H](CN1CCC(CNC(=O)c3cccnc3N)CC1)CO2` [Example 7, (S)-2-amino-N{[1-(7-methoxy-1,4-benzodioxan-2-ylmethyl)-4-piperidyl]methyl}-pyridine-3-carboxamide], the Ki is 197 nM in assay [1] and 3.6 nM in assay [2].
As to `Nc1ccsc1C(=O)NCC1CCN(C[C@H]2COc3ccc(Cl)cc3O2)CC1` [Example 17, (S)-3-amino-N-{[1-(7-chloro-1,4-benzodioxan-2-ylmethyl)-4-piperidyl]methyl}thiophene-2-carboxamide], the Ki in assay [1] was determined as 36 nM; in assay [2] it was 27 nM.
With `Nc1ncccc1C(=O)NCC1CCN(C[C@H]2COc3ccc(Cl)cc3O2)CC1` [Example 1, (S)-(-)-2-amino-N-{[1-(7-chloro-1,4-benzodioxan-2-ylmethyl)-4-piperidyl]methyl}pyridine-3-carboxamide], the Ki in assay [1] worked out at 32.2 nM. In assay [2], the inhibition at 1 µM stood at 97%.
For `Cc1ccc(C(=O)NCC2CCN(C[C@H]3COc4ccc(Cl)cc4O3)CC2)c(N)n1` [Example 14, (S)-2-amino-N-{[1-(7-chloro-1,4-benzodioxan-2-ylmethyl)-4-piperidyl]methyl}-6-methylpyridine-3-carboxamide] the same measures were 43.9 nM and 97%.
On to `O=C(NCC1CCN(C[C@H]2COc3ccc(Cl)cc3O2)CC1)c1ccccn1` [Example 12, (S)-N-{[1-(7-chloro-1,4-benzodioxan-2-ylmethyl)-4-piperidyl]methyl}pyridine-2-carboxamide], for which the Ki in assay [1] was found to be 21 nM. Also, the inhibition at 1 µM in assay [2] was determined as 95%.
In assay [1], `O=C(NCC1CCN(C[C@H]2COc3ccc(Cl)cc3O2)CC1)c1cccc2cccnc12` [Example 23, (S)-N-{[1-(7-chloro-1,4-benzodioxan-2-ylmethyl)-4-piperidyl]methyl}quinoline-8-carboxamide] had a Ki of 80 nM. The inhibition at 1 µM in assay [2] was 95%.
As to `Nc1ccsc1C(=O)NCC1CCN(CC2COc3ccccc3O2)CC1` (stereo not drawn) [Example 16, 3-amino-N-{[1-(1,4-benzodioxan-2-ylmethyl)-4-piperidyl]methyl}thiophene-2-carboxamide], the inhibitory constant (Ki) in assay [1] worked out at 68 nM. Further, the inhibition at 1 µM in assay [2] stood at 99%.
In assay [1], `Nc1ncccc1C(=O)NCC1CCN(C[C@H]2COc3cccc(F)c3O2)CC1` [Example 3, (S)-(-)-2-amino-N-{[1-(8-fluoro-1,4-benzodioxan-2-ylmethyl)-4-piperidyl]methyl}pyridine-3-carboxamide] had a Ki of 32.9 nM. Also, the inhibition at 1 µM in assay [2] worked out at 99%.
The corresponding values for `Nc1ncccc1C(=O)NCC1CCN(C[C@H]2COc3cccc(C(F)(F)F)c3O2)CC1` [Example 20, (S)-2-amino-N-{[1-(8-trifluoromethyl-1,4-benzodioxan-2-ylmethyl)-4-piperidyl]methyl}pyridine-3-carboxamide] are 12 nM and 98%.
For `Nc1ncccc1C(=O)NCC1CCN(C[C@H]2COc3cccc(Cl)c3O2)CC1` [Example 2, (S)-2-amino-N-{[1-(8-chloro-1,4-benzodioxan-2-ylmethyl)-4-piperidyl]methyl}-pyridine-3-carboxamide], the inhibition at 1 µM in assay [1] amounted to 104%; in assay [2], 98%.
`Nc1ncccc1C(=O)NCC1CCN(CC2COc3ccc(F)cc3O2)CC1` (stereo not drawn) [Example 10, 2-amino-N-{[1-(7-fluoro-1,4-benzodioxan-2-ylmethyl)-4-piperidyl]methyl}pyridine-3-carboxamide]: the Ki in assay [1] is 109 nM; in assay [2], 6.4 nM.
In turn, `O=C(NCC1CCN(C[C@H]2COc3ccc(Cl)cc3O2)CC1)c1cccnc1` [Example 22, (S)-N-{[1-(7-chloro-1,4-benzodioxan-2-ylmethyl)-4-piperidyl]methyl}pyridine-3-carboxamide] yielded an inhibitory constant (Ki) in assay [1] of 15 nM. Moreover, in assay [2], the inhibition at 1 µM was 99%.
For the compound `Nc1ncccc1C(=O)NCC1CCN(CC2COc3ccccc3O2)CC1` (stereo not drawn) [Example 4, 2-amino-N-{[1-(1,4-benzodioxan-2-ylmethyl)-4-piperidyl]methyl}pyridine-3-carboxamide], the inhibition at 1 µM came to 84% in assay [1] and 98% in assay [2].
Consider `Cc1ncccc1C(=O)NCC1CCN(C[C@H]2COc3cccc(Cl)c3O2)CC1` [Example 9, (S)-N-{[1-(8-chloro-1,4-benzodioxan-2-ylmethyl)-4-piperidyl]methyl}-2-methylpyridine-3-carboxamide], for which the Ki in assay [1] was 37 nM. Besides, in assay [2], the inhibition at 1 µM worked out at 97%.
The corresponding values for `Cc1ccc2c(c1)O[C@@H](CN1CCC(CNC(=O)c3cccnc3N)CC1)CO2` [Example 5, (S)-2-amino-N-{[1-(7-methyl-1,4-benzodioxan-2-ylmethyl)-4-piperidyl]methyl}pyridine-3-carboxamide] are 55.6 nM and 96%.
The corresponding values for `Cc1cccc2c1O[C@@H](CN1CCC(CNC(=O)c3cccnc3N)CC1)CO2` [Example 13, (S)-2-amino-N-{[1-(8-methyl-1,4-benzodioxan-2-ylmethyl)-4-piperidyl]methyl}pyridine-3-carboxamide] are 33 nM and 99%.
Turning to `O=C(NCC1CCN(CC2COc3ccccc3O2)CC1)c1ccccn1` (stereo not drawn) [Example 6, N-{[1-(1,4-benzodioxan-2-ylmethyl)-4-piperidyl]methyl}pyridine-2-carboxamide], the values for the Ki in assay [1] and in assay [2] were 67 nM and 4.4 nM, respectively.
The compound `Cc1ncccc1C(=O)NCC1CCN(C[C@H]2COc3ccc(Cl)cc3O2)CC1` [Example 18, (S)-N-{[1-(7-chloro-1,4-benzodioxan-2-ylmethyl)-4-piperidyl]methyl}-2-methylpyridine-3-carboxamide] showed a Ki in assay [1] of 110 nM. In addition, the inhibition at 1 µM in assay [2] was found to be 89%.
Consider `Nc1ncccc1C(=O)NCC1CCN(C[C@H]2COc3ccccc3O2)CC1` [Example 15, (S)-2-amino-N-{[1-(1,4-benzodioxan-2-ylmethyl)-4-piperidyl]methyl}pyridine-3-carboxamide], for which the Ki in assay [1] came out at 64.6 nM. Besides, in assay [2], the inhibition at 1 µM was 99%.
`O=C(NCC1CCN(CC2COc3ccccc3O2)CC1)c1cccc2cccnc12` (stereo not drawn) [Example 8, N-{[1-(1,4-benzodioxan-2-ylmethyl)-4-piperidyl]methyl}quinoline-8-carboxamide] registered a Ki in assay [1] of 95 nM. For the same compound, the inhibition at 1 µM in assay [2] came out at 100%.
